From patent US20230131899A1, “INHIBITORS OF MICROBIALLY INDUCED AMYLOID” (Axial Therapeutics, Inc., priority 2020, published 2023)
Like-named read-outs stand apart in the source and are kept apart here.

Target: T1, human α-synuclein (Homo sapiens, UniProt P37840)
T1 construct: the full-length gene for untagged human α-synuclein was inserted; made in house; host or cells: E. coli BL21(DE3), plasmid derived from pT7 or pET11a
Experiment: Cell-free Thioflavin T assay of α-synuclein aggregation (αSyn ThT Assay)
Format: biochemical
Details: αSyn 50 μM
Summary of the method: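 Untagged full-length human α-synuclein from E. coli, 50 μM, with 20-40 μM ThT, 1% DMSO, compound at 20-100 μM and a glass bead, 37° C. with shaking. Fluorescence (ex 438/em 495 nm) read hourly to 73 h. Compound-only background subtracted and values normalised to vehicle at 36-72 h or final timepoint, giving % inhibition.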

[1] = mean % inhibition of αSyn aggregation relative to DMSO control, compounds at 100 μM, read-out: αSyn ThT Assay % Inhibition
[2] = compounds at 100 μM, class symbol, read-out: αSyn ThT Assay % Inhibition (activity range)
[3] = class symbol, compounds 100 μM, read-out: αSyn ThT Assay % inhibition, activity range
[4] = mean percent inhibition relative to DMSO control, compounds 100 μM, read-out: αSyn ThT Assay % inhibition

| Compound | inhibition at 100 µM [1] | inhibition at 100 µM [2] | inhibition at 100 µM [3] | inhibition at 100 µM [4] |
| --- | --- | --- | --- | --- |
| O=C(O)C1CN(C[C@H](O)[C@@H](O)[C@H](O)[C@H](O)CO)S(=O)(=O)c2c(-c3cccc(C(F)(F)F)c3)c(Cc3cccc4ccccc34)cc(=O)n21 (mixture of isomers) [Compound 066, 8-(naphthalen-1-ylmethyl)-6-oxo-2-((2S,3R,4R,5R)-2,3,4,5,6-pentahydroxyhexyl)-9-(3-(trifluoromethyl)phenyl)-3,4-dihydro-2H,6H-pyrido[1,2-e][1,2,5]thiadiazine-4-carboxylic acid 1,1-dioxide] | 13% | 11 to 30% |  |  |
| CCCCCN1CC(C(=O)O)n2c(c(-c3cccc(C(F)(F)F)c3)c(Cc3cccc4ccccc34)cc2=O)S1(=O)=O (single isomer, unassigned) [Compound 025a, 8-(naphthalen-1-ylmethyl)-6-oxo-2-pentyl-9-(3-(trifluoromethyl)phenyl)-3,4-dihydro-2H,6H-pyrido[1,2-e][1,2,5]thiadiazine-4-carboxylic acid 1,1-dioxide] | 50% | 31 to 60% |  |  |
| CCCNC(=O)c1c(Cc2cccc3ccccc23)c(-c2cccc(C(F)(F)F)c2)c2n(c1=O)C(C(=O)O)CN(C)S2(=O)=O (centres unmarked) [Compound 154, 2-methyl-8-(naphthalen-1-ylmethyl)-6-oxo-7-(propylcarbamoyl)-9-(3-(trifluoromethyl)phenyl)-3,4-dihydro-2H,6H-pyrido[1,2-e][1,2,5]thiadiazine-4-carboxylic acid 1,1-dioxide] |  |  | > 60% | 89% |
| CN(C)C(=O)c1c(Cc2cccc3ccccc23)c(-c2cccc(C(F)(F)F)c2)c2n(c1=O)C(C(=O)O)CN(C)S2(=O)=O (centres unmarked) [Compound 173, 7-(dimethylcarbamoyl)-2-methyl-8-(naphthalen-1-ylmethyl)-6-oxo-9-(3-(trifluoromethyl)phenyl)-3,4-dihydro-2H,6H-pyrido[1,2-e] [1,2,5] thiadiazine-4-carboxylic acid 1,1-dioxide] |  |  | > 60% | 86% |
| CCCN1CC(C(=O)O)n2c(c(-c3cccc(C(F)(F)F)c3)c(Cc3cccc4ccccc34)c(NC(=O)CC)c2=O)S1(=O)=O (centres unmarked) [Compound 153, 8-(naphthalen-1-ylmethyl)-6-oxo-7-propionamido-2-propyl-9-(3-(trifluoromethyl)phenyl)-3,4-dihydro-2H,6H-pyrido[1,2-e][1,2,5]thiadiazine-4-carboxylic acid 1,1-dioxide] |  |  | 31 to 60% | 48% |
| O=C(O)C1n2c(c(-c3cccc(C(F)(F)F)c3)c(Cc3cccc4ccccc34)nc2=O)SC12CCCC2 (centres unmarked) [Compound 053, 7′-(naphthalen-1-ylmethyl)-5′-oxo-8′-(3-(trifluoromethyl)phenyl)-3′H,5′H-spiro[cyclopentane-1,2′-thiazolo[3,2-c]pyrimidine]-3′-carboxylic acid] | 65% | > 60% |  |  |
| CCCN1CC(C(=O)O)n2c1c(-c1cccc(C(F)(F)F)c1)c(Cc1cccc3ccccc13)c(Cl)c2=O (centres unmarked) [Compound 162, 6-chloro-7-(naphthalen-1-ylmethyl)-5-oxo-1-propyl-8-(3-(trifluoromethyl)phenyl)-1,2,3,5-tetrahydroimidazo[1,2-a]pyridine-3-carboxylic acid] |  |  | > 60% | 67% |
| Cn1c(=O)c2c(nc(CCCCN3CC(C(=O)O)n4c(c(-c5cccc(C(F)(F)F)c5)c(Cc5cccc6ccccc56)cc4=O)S3(=O)=O)n2C)n(C)c1=O (centres unmarked) [Compound 044, 8-(naphthalen-1-ylmethyl)-6-oxo-9-(3-(trifluoromethyl)phenyl)-2-(4-(1,3,7-trimethyl-2,6-dioxo-2,3,6,7-tetrahydro-1H-purin-8-yl)butyl)-3,4-dihydro-2H,6H-pyrido[1,2-e][1,2,5]thiadiazine-4-carboxylic acid 1,1-dioxide] | 10% | -10 to 10% |  |  |
| Cc1c(Cc2cccc3ccccc23)c(-c2cccc(C(F)(F)F)c2)c2n(c1=O)C(C(=O)O)CN(C)S2(=O)=O (centres unmarked) [Compound 068, 2,7-dimethyl-8-(naphthalen-1-ylmethyl)-6-oxo-9-(3-(trifluoromethyl)phenyl)-3,4-dihydro-2H,6H-pyrido[1,2-e][1,2,5]thiadiazine-4-carboxylic acid 1,1-dioxide] | 74% | > 60% |  |  |
| Nc1c(Cc2ccc(N)c3ccccc23)c(-c2cccc(C(F)(F)F)c2)c2n(c1=O)C(C(=O)O)CNS2(=O)=O (centres unmarked) [Compound 041] | 25% | 11 to 30% |  |  |
| O=C(O)C1CN(CC2CCOCC2)c2c(-c3cccc(C(F)(F)F)c3)c(Cc3cccc4ccccc34)c(Cl)c(=O)n21 (centres unmarked) [Compound 182, 6-chloro-7-(naphthalen-1-ylmethyl)-5-oxo-1-((tetrahydro-2H-pyran-4-yl)methyl)-8-(3-(trifluoromethyl)phenyl)-1,2,3,5-tetrahydroimidazo[1,2-a]pyridine-3-carboxylic acid] |  |  | 31 to 60% | 33% |
| O=C(O)C1CN(CCCCCO)c2c(-c3cccc(C(F)(F)F)c3)c(Cc3cccc4ccccc34)c(Cl)c(=O)n21 (centres unmarked) [Compound 199, 6-chloro-1-(5-hydroxypentyl)-7-(naphthalen-1-ylmethyl)-5-oxo-8-(3-(trifluoromethyl)phenyl)-1,2,3,5-tetrahydroimidazo[1,2-a]pyridine-3-carboxylic acid] |  |  | 11 to 30% | 29% |
| NC(=O)c1c(Cc2cccc3ccccc23)c(-c2cccc(C(F)(F)F)c2)c2n(c1=O)C(C(=O)O)CN(CCCO)S2(=O)=O (centres unmarked) [Compound 184, 7-carbamoyl-2-(3-hydroxypropyl)-8-(naphthalen-1-ylmethyl)-6-oxo-9-(3-(trifluoromethyl)phenyl)-3,4-dihydro-2H,6H-pyrido[1,2-e][1,2,5]thiadiazine-4-carboxylic acid 1,1-dioxide] |  |  | > 60% | 75% |
| CN(C)C(=O)C1CN(C)S(=O)(=O)c2c(-c3cccc(C(F)(F)F)c3)c(Cc3cccc4ccccc34)cc(=O)n21 (centres unmarked) [Compound 032, N,N-2-trimethyl-8-(naphthalen-1-ylmethyl)-6-oxo-9-(3-(trifluoromethyl)phenyl)-3,4-dihydro-2H,6H-pyrido[1,2-e][1,2,5]thiadiazine-4-carboxamide 1,1-dioxide] | 8% | -10 to 10% |  |  |
| O=C(O)C1CN(CCC2CCCCC2)c2c(-c3cccc(C(F)(F)F)c3)c(Cc3cccc4ccccc34)c(Cl)c(=O)n21 (centres unmarked) [Compound 207, 6-chloro-1-(2-cyclohexylethyl)-7-(naphthalen-1-ylmethyl)-5-oxo-8-(3-(trifluoromethyl)phenyl)-1,2,3,5-tetrahydroimidazo[1,2-a]pyridine-3-carboxylic acid] |  |  | > 60% | 71% |
| O=C(O)C1CN(Cc2ccccc2CO)c2c(-c3cccc(C(F)(F)F)c3)c(Cc3cccc4ccccc34)c(Cl)c(=O)n21 (centres unmarked) [Compound 181, 6-chloro-1-(2-(hydroxymethyl)benzyl)-7-(naphthalen-1-ylmethyl)-5-oxo-8-(3-(trifluoromethyl)phenyl)-1,2,3,5-tetrahydroimidazo[1,2-a]pyridine-3-carboxylic acid] |  |  | 31 to 60% | 31% |
| CCc1c(Cc2cccc3ccccc23)c(-c2cccc(C(F)(F)F)c2)c2n(c1=O)C(C(=O)O)CN2Cc1ccccc1 (centres unmarked) [Compound 140, 1-benzyl-6-ethyl-7-(naphthalen-1-ylmethyl)-5-oxo-8-(3-(trifluoromethyl)phenyl)-1,2,3,5-tetrahydroimidazo[1,2-a]pyridine-3-carboxylic acid] |  |  | 31 to 60% | 48% |
| CN1CC(C(=O)O)n2c(c(-c3cccc(C(F)(F)F)c3)c(Cc3cccc4ccccc34)c(NCc3ccccc3)c2=O)S1(=O)=O (centres unmarked) [Compound 071] | 38% | 31 to 60% |  |  |
| O=C(O)C1CN(C[C@@H](O)CO)S(=O)(=O)c2c(-c3cccc(C(F)(F)F)c3)c(Cc3cccc4ccccc34)cc(=O)n21 (mixture of isomers) [Compound 065b, 2-((R)-2,3-dihydroxypropyl)-8-(naphthalen-1-ylmethyl)-6-oxo-9-(3-(trifluoromethyl)phenyl)-3,4-dihydro-2H,6H-pyrido[1,2-e][1,2,5]thiadiazine-4-carboxylic acid 1,1-dioxide] | 9% | -10 to 10% |  |  |
| CC(C)N1CC(C(=O)O)n2c(c(-c3cccc(C(F)(F)F)c3)c(Cc3cccc4ccccc34)c(C(N)=O)c2=O)S1(=O)=O (centres unmarked) [Compound 175, 7-carbamoyl-2-isopropyl-8-(naphthalen-1-ylmethyl)-6-oxo-9-(3-(trifluoromethyl)phenyl)-3,4-dihydro-2H,6H-pyrido[1,2-e][1,2,5]thiadiazine-4-carboxylic acid 1,1-dioxide] |  |  | > 60% | 98% |
| O=C(O)C1CN(Cc2cccc(O)c2)c2c(-c3cccc(C(F)(F)F)c3)c(Cc3cccc4ccccc34)c(Cl)c(=O)n21 (centres unmarked) [Compound 196, 6-chloro-1-(3-hydroxybenzyl)-7-(naphthalen-1-ylmethyl)-5-oxo-8-(3-(trifluoromethyl)phenyl)-1,2,3,5-tetrahydroimidazo[1,2-a]pyridine-3-carboxylic acid] |  |  | > 60% | 61% |
| CNC(=O)CCCN1CC(C(=O)O)n2c(c(-c3cccc(C(F)(F)F)c3)c(Cc3cccc4ccccc34)cc2=O)S1(=O)=O (centres unmarked) [Compound 037, 2-(4-(methylamino)-4-oxobutyl)-8-(naphthalen-1-ylmethyl)-6-oxo-9-(3-(trifluoromethyl)phenyl)-3,4-dihydro-2H,6H-pyrido[1,2-e][1,2,5]thiadiazine-4-carboxylic acid 1,1-dioxide] | 36% | 31 to 60% |  |  |
